From patent US20150141336A1, “Pancreatic Peptide Compounds and Use” (Novo Nordisk A/S, priority 2012, published 2015)
Read-outs that look alike come from different tables or passages of the source. Numbered stars: 1 amine (or outer) side, 2 acyl side, 3 side chain; on linkers, the order of the positions; unused ones are H or OH. Side chains are listed from the residue outwards. Peptide text beside a SMILES is read from it. * marks the point of attachment. C18 diacid = O=C(O)CCCCCCCCCCCCCCCCC(=O)*; γGlu = O=C(O)[C@H](CCC(=O)[*:2])N[*:1]; AEEA = NCCOCCOCC(=O)O

Tests used:
[1] = Assay (X) determination of effect on body weight in mice on high fat diet; type: in vivo, C57B16J mice; settings: male C57 DIO mice, s.c., 0.3 μmol/kg once daily; FIG. 1
Source text: Additional assays useful to the invention comprise those that can determine the effect of PP peptides on body weight and/or body composition. An exemplary assay is the following which involves utilization of a diet induced obese male […] mouse model for metabolic disease: […] (Taconic, Denmark) on regular diurnal rhythm and with access to a high fat diet (D12492, Research Diet, USA) are used. The mice are weighed on a weekly basis. Mice are received at age 5 weeks and put on high fat diet and housed at 24 degree Celsius in normal daily rhythm. Mice are group housed 10 per cage during an obesity induction period of 14 weeks. Two weeks before study start mice are single housed (two mice per cage with a dividing wall between). […] Body weight for all mice is recorded daily in combination with dosing. […] Data are analysed in Graph Pad Prism. Change of body weight from baseline in male C57 DIO mice (mean±SEM, n=10) after s.c. administration of compound AF (0.03 μmol/kg once daily or 0.1 μmol/kg every other day) or the reference compound human PP(2-36) (0.3 μmol/kg, once daily) was determined using Assay (X). […] Change of body weight (mean±SEM, n=10-12) and change of body weight from baseline (mean±SEM, n=10) in male […] mice on a high fat diet after administration of vehicle, compound BN (1 μmol/kg/day, s.c.) or reference compound 1 (500 nmol/kg/day, pump) was determined using Assay (X).

[2] = minipig, in vivo; cited from earlier work
[3] = human, in vivo; cited from earlier work
[4] = Assay (II) PK i.v. minipig, in vivo half-life; parameters: species or system Göttingen mini-pigs; settings: male, Göttingen, minipig, iv, Half-life minipig, Assay (II)
Procedure, shortened: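 Plasma levels after a single 6 nmol/kg intravenous dose in five male Göttingen mini-pigs were measured by TFC/LC/MS/MS against spiked-plasma calibration, sampling to 240 h. Vehicle: 50 mM K2HPO4, 0.05% tween 80, pH 8.0. Individual profiles analysed non-compartmentally for half-life.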

Compound	half-life [4]	also measured
CC[C@H](C)[C@H](NC(=O)[C@H](Cc1ccc(O)cc1)NC(=O)[C@H](CCCNC(=N)N)NC(=O)[C@H](CCCNC(=N)N)NC(=O)[C@H](CC(C)C)NC(=O)[C@H](CC(=O)O)NC(=O)[C@H](C)NC(=O)[C@H](C)NC(=O)[C@H](Cc1ccc(O)cc1)NC(=O)[C@H](CCC(N)=O)NC(=O)[C@H](C)NC(=O)[C@H](CCSC)NC(=O)[C@H](CCC(N)=O)NC(=O)[C@H](CCC(=O)O)NC(=O)[C@@H]1CCCN1C(=O)[C@@H](NC(=O)[C@H](C)NC(=O)[C@H](CC(N)=O)NC(=O)[C@H](CC(=O)O)NC(=O)CNC(=O)[C@@H]1CCCN1C(=O)[C@H](Cc1ccc(O)cc1)NC(=O)[C@@H](NC(=O)[C@@H]1CCCN1C(=O)[C@H](CCC(=O)O)NC(=O)[C@H](CC(C)C)NC(=O)[C@@H]1CCCN1C(=O)[C@H](C)N)C(C)C)[C@@H](C)O)C(=O)N[C@@H](CC(N)=O)C(=O)N[C@@H](CCSC)C(=O)N[C@@H](CC(C)C)C(=O)N[C@H](C(=O)N[C@@H](CCCNC(=N)N)C(=O)N1CCC[C@H]1C(=O)N[C@@H](CCCNC(=N)N)C(=O)N[C@@H](Cc1ccc(O)cc1)C(N)=O)[C@@H](C)O [PP(2-36)]	–	Change of body weight from baseline [1]: reduction in body weight
CC[C@H](C)[C@H](NC(=O)[C@H](Cc1ccc(O)cc1)NC(=O)[C@H](CCCNC(=N)N)NC(=O)[C@H](CCCNC(=N)N)NC(=O)[C@H](CC(C)C)NC(=O)[C@H](CC(=O)O)NC(=O)[C@H](C)NC(=O)[C@H](C)NC(=O)[C@H](Cc1ccc(O)cc1)NC(=O)[C@H](CCC(N)=O)NC(=O)[C@H](C)NC(=O)[C@H](CCSC)NC(=O)[C@H](CCC(N)=O)NC(=O)[C@H](CCC(=O)O)NC(=O)[C@@H]1CCCN1C(=O)[C@@H](NC(=O)[C@H](C)NC(=O)[C@H](CC(N)=O)NC(=O)[C@H](CC(=O)O)NC(=O)CNC(=O)[C@@H]1CCCN1C(=O)[C@H](Cc1ccc(O)cc1)NC(=O)[C@@H](NC(=O)[C@@H]1CCCN1C(=O)[C@H](CCC(=O)O)NC(=O)[C@H](CC(C)C)NC(=O)[C@@H]1CCCN1C(=O)[C@H](C)N)C(C)C)[C@@H](C)O)C(=O)N[C@@H](CC(N)=O)C(=O)N[C@@H](CCSC)C(=O)N[C@@H](CC(C)C)C(=O)N[C@H](C(=O)N[C@@H](CCCNC(=N)N)C(=O)N1CCC[C@H]1C(=O)N[C@@H](CCCNC(=N)N)C(=O)N[C@@H](Cc1ccc(O)cc1)C(N)=O)[C@@H](C)O [PP(3-36)]	–	half-life [2]: less than 30 minutes
CC[C@H](C)[C@H](NC(=O)[C@H](Cc1ccc(O)cc1)NC(=O)[C@H](CCCNC(=N)N)NC(=O)[C@H](CCCNC(=N)N)NC(=O)[C@H](CC(C)C)NC(=O)[C@H](CC(=O)O)NC(=O)[C@H](C)NC(=O)[C@H](C)NC(=O)[C@H](Cc1ccc(O)cc1)NC(=O)[C@H](CCC(N)=O)NC(=O)[C@H](C)NC(=O)[C@H](CCSC)NC(=O)[C@H](CCC(N)=O)NC(=O)[C@H](CCC(=O)O)NC(=O)[C@@H]1CCCN1C(=O)[C@@H](NC(=O)[C@H](C)NC(=O)[C@H](CC(N)=O)NC(=O)[C@H](CC(=O)O)NC(=O)CNC(=O)[C@@H]1CCCN1C(=O)[C@H](Cc1ccc(O)cc1)NC(=O)[C@@H](NC(=O)[C@@H]1CCCN1C(=O)[C@H](CCC(=O)O)NC(=O)[C@H](CC(C)C)NC(=O)[C@@H]1CCCN1C(=O)[C@H](C)N)C(C)C)[C@@H](C)O)C(=O)N[C@@H](CC(N)=O)C(=O)N[C@@H](CCSC)C(=O)N[C@@H](CC(C)C)C(=O)N[C@H](C(=O)N[C@@H](CCCNC(=N)N)C(=O)N1CCC[C@H]1C(=O)N[C@@H](CCCNC(=N)N)C(=O)N[C@@H](Cc1ccc(O)cc1)C(N)=O)[C@@H](C)O [PP]	–	half-life [3]: approximately 10 minutes
CC[C@H](C)[C@H](NC(=O)[C@H](Cc1ccc(O)cc1)NC(=O)[C@H](CCCNC(=N)N)NC(=O)[C@H](CCCCNC(=O)COCCOCCNC(=O)COCCOCCNC(=O)CC[C@H](NC(=O)CCCCCCCCCCCCCCCCC(=O)O)C(=O)O)NC(=O)[C@H](CC(C)C)NC(=O)[C@H](CC(=O)O)NC(=O)[C@H](C)NC(=O)[C@H](C)NC(=O)[C@H](Cc1ccc(O)cc1)NC(=O)[C@H](CCC(N)=O)NC(=O)[C@H](C)NC(=O)[C@H](CCSC)NC(=O)[C@H](CCC(N)=O)NC(=O)[C@H](CCC(=O)O)NC(=O)[C@@H]1CCCN1C(=O)[C@@H](NC(=O)[C@H](C)NC(=O)[C@H](CC(N)=O)NC(=O)[C@H](CC(=O)O)NC(=O)CNC(=O)[C@@H]1CCCN1C(=O)[C@H](Cc1ccc(O)cc1)NC(=O)[C@@H](NC(=O)[C@@H]1CCCN1C(=O)[C@H](CCC(=O)O)NC(=O)[C@H](CC(C)C)NC(=O)[C@@H]1CCCN1)C(C)C)[C@@H](C)O)C(=O)N[C@@H](CC(N)=O)C(=O)N[C@@H](CCSC)C(=O)N[C@@H](CC(C)C)C(=O)N[C@H](C(=O)N[C@@H](CCCNC(=N)N)C(=O)N1CCC[C@H]1C(=O)N[C@@H](CCCNC(=N)N)C(=O)N[C@@H](Cc1ccc(O)cc1)C(N)=O)[C@@H](C)O [Compound I] (H-PLEPVYPGDNATPEQMAQYAADLK([AEEA-AEEA-γGlu-C18 diacid])RYINMLTRPRY-NH2; N-terminus and C-terminus assumed)	88 h	–

Continued, in another order:

half-life [4]	Compound	also measured
24 h	CC[C@H](C)[C@H](NC(=O)[C@H](Cc1ccc(O)cc1)NC(=O)[C@H](CCCNC(=N)N)NC(=O)[C@H](CCCNC(=N)N)NC(=O)[C@H](CC(C)C)NC(=O)[C@H](CC(=O)O)NC(=O)[C@H](C)NC(=O)[C@H](C)NC(=O)[C@H](Cc1ccc(O)cc1)NC(=O)[C@H](CCC(N)=O)NC(=O)[C@H](C)NC(=O)[C@H](CCSC)NC(=O)[C@H](CCC(N)=O)NC(=O)[C@H](CCCCNC(=O)COCCOCCNC(=O)COCCOCCNC(=O)CC[C@H](NC(=O)CCCCCCCCCCCCCCCCC(=O)O)C(=O)O)NC(=O)[C@@H]1CCCN1C(=O)[C@@H](NC(=O)[C@H](C)NC(=O)[C@H](CC(N)=O)NC(=O)[C@H](CC(=O)O)NC(=O)CNC(=O)[C@@H]1CCCN1C(=O)[C@H](Cc1ccc(O)cc1)NC(=O)[C@@H](NC(=O)[C@@H]1CCCN1C(=O)[C@H](CCC(=O)O)NC(=O)[C@@H](N)CC(C)C)C(C)C)[C@@H](C)O)C(=O)N[C@@H](CC(N)=O)C(=O)N[C@@H](CCSC)C(=O)N[C@@H](CC(C)C)C(=O)N[C@H](C(=O)N[C@@H](CCCNC(=N)N)C(=O)N1CCC[C@H]1C(=O)N[C@@H](CCCNC(=N)N)C(=O)N[C@@H](Cc1ccc(O)cc1)C(N)=O)[C@@H](C)O [Compound BA] (H-LEPVYPGDNATPK([AEEA-AEEA-γGlu-C18 diacid])QMAQYAADLRRYINMLTRPRY-NH2; N-terminus and C-terminus assumed)	–
48 h	CC[C@H](C)[C@H](NC(=O)[C@H](Cc1ccc(O)cc1)NC(=O)[C@H](CCCNC(=N)N)NC(=O)[C@H](CCCCNC(=O)COCCOCCNC(=O)COCCOCCNC(=O)CC[C@H](NC(=O)CCCCCCCCCCCCCCCCC(=O)O)C(=O)O)NC(=O)[C@H](CC(C)C)NC(=O)[C@H](CC(=O)O)NC(=O)[C@H](C)NC(=O)[C@H](C)NC(=O)[C@H](Cc1ccc(O)cc1)NC(=O)[C@H](CCC(N)=O)NC(=O)[C@H](C)NC(=O)[C@H](CCSC)NC(=O)[C@H](CCC(N)=O)NC(=O)[C@H](CCC(=O)O)NC(=O)[C@@H]1CCCN1C(=O)[C@@H](NC(=O)[C@H](C)NC(=O)[C@H](CC(N)=O)NC(=O)[C@H](CC(=O)O)NC(=O)CNC(=O)[C@@H]1CCCN1C(=O)[C@H](Cc1ccc(O)cc1)NC(=O)[C@@H](NC(=O)[C@@H]1CCCN1C(=O)[C@H](CCC(=O)O)NC(=O)[C@@H](N)CC(C)C)C(C)C)[C@@H](C)O)C(=O)N[C@@H](CC(N)=O)C(=O)N[C@@H](CCSC)C(=O)N[C@@H](CC(C)C)C(=O)N[C@H](C(=O)N[C@@H](CCCNC(=N)N)C(=O)N1CCC[C@H]1C(=O)N[C@@H](CCCNC(=N)N)C(=O)N[C@@H](Cc1ccc(O)cc1)C(N)=O)[C@@H](C)O [Compound AQ] (H-LEPVYPGDNATPEQMAQYAADLK([AEEA-AEEA-γGlu-C18 diacid])RYINMLTRPRY-NH2; N-terminus and C-terminus assumed)	–
